From publication PMC12147034, “Identification of alkynyl nicotinamide HSN748 as a RET solvent-front mutant inhibitor with intracranial efficacy” (RSC Medicinal Chemistry, 2025)
Like-named read-outs stand apart in the source and are kept apart here.

Assays:
[1] = test system: B/KR(G810C)-luc brain tumors; experiment: Intracranial B/KR(G810C)-luc tumor experiment (bioluminescence imaging); assay type: in vivo, mice; conditions: for inhibition at 10 mg/kg: Mus musculus, 10 mg kg^-1, not statistically significant
Method: Fig. 5 Intracranial efficacy of alkynyl nicotinamide-based RET TKIs. B/KR(G810C)-luc cells were injected into mouse brains and treated with indicated compounds. (A) Responses of intracranial tumors to the treatment were monitored by measurement of bioluminescence signal in the animal heads. The data are means and SEM. (B) Response of extracranial tumors were monitored by subtracting whole body bioluminescence signal with the bioluminescence signals of the head. (C) Bioluminescence images of vehicle- and 20 mg kg^−1 HSN748-treated mice on day 0 and day 23 to illustrate the progression of tumors in vehicle-treated mice and suppression of tumor growth in HSN748-treated mic. TEXT PRINTED IN THE PICTURE: (C) HSN748: ROI 5 = 6.99e+4 (20 mg/kg; Day 0); ROI 5 = 9.86e+4 (20 mg/kg; Day 0); ROI 1 = 2.22e+5 (20 mg/kg; Day 0); ROI 1 = 1.08e+8 (20 mg/kg; Day 23); ROI 2 = 1.43e+7 (20 mg/kg; Day 23); ROI 3 = 1.59e+9 (20 mg/kg; Day 23); ROI 1 = 3.56e+8 (20 mg/kg; Day 23) DOUBTS OF THE COPYIST ABOUT THIS PICTURE: Panels A and B print no numbers for any substance, only curves, axes and legends, so nothing was read from them. / Panel C: the ROI values are very small, blurred instrument overlays on the mouse images. In all values given, the digits 3, 5, 6, 8 and 9 and the exponents cannot be told apart with certainty. / HSN748, Day 0, 'ROI 5 = 6.99e+4': the ROI number may be 1 or 5, and 6.99 may be 8.99. / HSN748, Day 0, 'ROI 5 = 9.86e+4': the ROI number may be 3 or 5, and the exponent may be cut off at the image edge. / HSN748, Day 0, 'ROI 1 = 2.22e+5': the last digit of the exponent is uncertain. / HSN748, Day 0: 'ROI 3 = ...', 'ROI 2 = 2.35e...', 'ROI 1 = 3.0...' and the fragments 'e+5' and 'e+4' are cut off by the image crop and were left out. / HSN748, Day 23: 'ROI 2 = ...' in the right image is cut off and was left out. / HSN748, Day 23, 'ROI 1 = 1.08e+8': may be 1.06 or 1.08. / HSN748, Day 23, 'ROI 3 = 1.59e+9': the exponent may be 8 or 9. / HSN748, Day 23, 'ROI 1 = 3.56e+8': may be 3.58 or 3.56. / The Vehicle (control) mice in panel C also carry ROI labels. They were left out because Vehicle is a control, not a substance, and several are cut off. Day 0 reads about ROI 1 = 7.31e+4, ROI 2 = 9.65e+4, ROI 3 = 2.43e+5. Day 23 reads about ROI 1 = 7.32e+6, ROI 2 = 1.14e+9, ROI 3 = 1.31e+..., ROI 1 = 7.77e+9.
Intracranial tumor experiments were performed using female NRG mice (Jackson Laboratory stock #007799) 10–12 weeks old as the hosts. Mice were anesthetized with 3% isoflurane gas and situated in a stereotactic frame (Stoelting). To determine the injection site, the scalp was opened with a scalpel and the bregma was located. Then the point 1.5 mm posterior and 2 mm to the right was identified and a 2 mm burr hole was drilled just through the skull. 3 × 10^5 B/KR(G810C)-Luc cells in 3 μL were injected into the brain at a depth of 4 mm over 3 minutes using a 10 μL Hamilton syringe. The syringe was withdrawn over 5 minutes and the hole was filled with bone wax, the scalp was closed with medical glue, and the mice were returned to a heated cage for recovery. Tumor growth was determined via bioluminescent imaging with a Spectral Ami Optical Imaging System (Bruker). Mice were anesthetized with 3% isoflurane gas and injected intraperitoneally with 150 mg kg^−1D-luciferin. After 15 minutes, mice were imaged for photon emission to determine tumor burden.

[2] = test system: KIF5B-RET-driven lung tumors; experiment: KIF5B-RET-driven lung tumors in C/KR transgenic mice; assay type: in vivo
Method: For the HSN748 treatment experiment in CCSP-rtTA/tetO-KIF5B-RET(C/KR) transgenic mice,[16] approximately 2 months old male and female C/KR transgenic mice were fed with rodent chow containing 200 mg kg^−1 doxycycline (Dox Diet, Bio-Serv) for 4 months to induce KIF5B-RET-driven lung tumors. For the HSND19 treatment experiment in C/KR transgenic mice, 3 months old male and female C/KR transgenic mice were induced with doxycycline for 6 months as above and then treated with HSND19 or vehicle by oral gavage as indicated in Fig. 3E. At the endpoint, mouse lungs were collected and either fixed in 10% buffered formalin or snap-frozen in liquid nitrogen as described.[16,27]
For histological assessment of lung tumor burden and response to treatment, sections (4 μm thick) of formalin-fixed paraffin-embedded lung tissues were stained with hematoxylin and eosin (H&E). Two H&E-stained tissue sections that were 5 slides apart were scanned using an Axioscan Zeiss slide scanner at 20X magnification. The scanned lung images were then analyzed with the HALO® image analysis program (v3.6, Indica Labs). The random forest machine learning algorithm of HALO® was used to identify tumor vs. normal area by using the tissue classifier add-on. Tumor and normal areas were classified using normal mouse lungs as the reference. Fibrotic stroma was excluded.

[3] = read-out: inhibition of the extracranial tumors
[4] = read-out: inhibition of the intracranial tumors

Structure (SMILES) | extracranial bioluminescence signals of B/KR(G810C)-luc tumor cells ([1]; 20 mg kg^-1) | inhibition at 10 mg/kg [1, 3] [%] | inhibition at 10 mg/kg [1, 4] [%] | phospho-RET in lung tissue (immunoblotting) ([2]; C/KR transgenic mice) | median lung tumor burden ([2]; HSND19 experiment, 1 month treatment, Dox-induced C/KR mice, vehicle 39%) [%] | inhibition of intracranial B/KR(G810C)-luc tumors ([1]; 20 mg kg^-1, bioluminescence signal in the head) | body weight loss ([2]; C/KR transgenic mice) | median lung tumor area ([2]; HSN748 experiment, 1 month treatment, Dox-induced C/KR mice, vehicle 20.1%) [%]
Cc1n[nH]c2ncc(C#Cc3cncc(C(=O)Nc4ccc(CN5CCN(C)CC5)c(C(F)(F)F)c4)c3)cc12 [HSND19, 5-((3-Methyl-1H-pyrazolo[3,4-b]pyridin-5-yl)ethynyl)-N-(4-((4-methylpiperazin-1-yl)methyl)-3-(trifluoromethyl)phenyl)nicotinamide] | significantly inhibited | 85 | 28 | reduced | 4.84 | – | – | –
CN1CCN(Cc2ccc(NC(=O)c3cncc(C#Cc4cnc5cccnn45)c3)cc2C(F)(F)F)CC1 [HSN748] | significantly inhibited | 58 | 52 | suppressed | – | statistically significant inhibition | not observed | 9.2
